In patent EP2272817A1, “PAI-1 INHIBITOR” (Institute of Medicinal Molecular Design, Inc., priority 2008, dated 2009):
Where two headings read alike, the source gives them in different places.

How the values were obtained:
recombinant human PAI-1 [1] = molecular target: T1, recombinant human PAI-1 (Homo sapiens, UniProt P05121); assay: biochemical
recombinant rat PAI-1 = molecular target: T2, recombinant rat PAI-1 (Rattus norvegicus, UniProt P20961); assay: biochemical; conditions: read-out: Inhibition Rate of PAI-1 Activity (%)
T2 sequence (P20961 24-402): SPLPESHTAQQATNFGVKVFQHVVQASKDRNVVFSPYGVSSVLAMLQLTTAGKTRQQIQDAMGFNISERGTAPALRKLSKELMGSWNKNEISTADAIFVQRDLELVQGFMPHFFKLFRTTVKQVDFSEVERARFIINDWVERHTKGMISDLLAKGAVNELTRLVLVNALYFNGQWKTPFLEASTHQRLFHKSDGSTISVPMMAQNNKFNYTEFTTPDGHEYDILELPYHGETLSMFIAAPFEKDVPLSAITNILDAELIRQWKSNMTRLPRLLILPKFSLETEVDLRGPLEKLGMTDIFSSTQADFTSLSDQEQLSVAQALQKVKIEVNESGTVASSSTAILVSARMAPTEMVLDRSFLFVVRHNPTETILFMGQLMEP

recombinant human PAI-1 [2] = molecular target: T1, recombinant human PAI-1; assay: Test Example 2: Human PAI-1 Inhibitory Activity (pH 7.4 HEPES buffer, 10 minutes incubation with two-chain tPA); assay type: biochemical; set-up: purchased Molecular Innovations, Inc; conditions: read-out: Inhibition Rate of PAI-1 Activity (%)
Procedure: 0.1 M HEPES, 0.1 M NaCl. 1 mM EDTA. 0.1 % Polyethylene glycol 8,000 (Hampton Research Corporation),
2 mM Dimethyldecylphoshine oxide [Apo-10] (Fluka Corporation)

[3] = read-out: Inhibition Rate of PAI-1 Activity (%), Compound Concentration 5µM
[4] = read-out: Inhibition Rate of PAI-1 Activity (%), Compound Concentration 10µM
[5] = read-out: Inhibition Rate of PAI-1 Activity (%), Compound Concentration 25µM
[6] = read-out: Inhibition Rate of PAI-1 Activity (%)

T1 sequence (P05121 24-402): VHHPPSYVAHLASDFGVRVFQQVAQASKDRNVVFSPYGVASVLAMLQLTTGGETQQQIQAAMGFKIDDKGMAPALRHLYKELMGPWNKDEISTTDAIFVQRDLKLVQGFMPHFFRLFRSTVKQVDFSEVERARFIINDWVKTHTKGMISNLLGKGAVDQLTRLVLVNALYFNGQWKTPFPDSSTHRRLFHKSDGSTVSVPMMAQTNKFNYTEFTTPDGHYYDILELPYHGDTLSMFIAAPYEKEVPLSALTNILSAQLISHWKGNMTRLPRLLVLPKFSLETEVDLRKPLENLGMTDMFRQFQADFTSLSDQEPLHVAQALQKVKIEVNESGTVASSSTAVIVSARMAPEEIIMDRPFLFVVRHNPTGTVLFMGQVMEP

Structure (SMILES) | inhibition at 5 µM (recombinant human PAI-1 [1]; [3]) [%] | inhibition at 10 µM (recombinant human PAI-1 [1]; [4]) [%] | inhibition at 25 µM (recombinant human PAI-1 [1]; [5]) [%] | inhibition at 0.3 µM (recombinant rat PAI-1) [%] | inhibition at 1 µM (recombinant rat PAI-1) [%] | inhibition at 3 µM (recombinant rat PAI-1) [%] | inhibition at 10 µM (recombinant rat PAI-1) [%] | inhibition at 0.1 µM (recombinant human PAI-1 [2]) [%] | inhibition at 0.3 µM (recombinant human PAI-1 [2]) [%] | inhibition at 1 µM (recombinant human PAI-1 [2]) [%] | inhibition at 3 µM (recombinant human PAI-1 [2]) [%] | inhibition at 5 µM (recombinant human PAI-1 [1]; [6]) [%] | inhibition at 10 µM (recombinant human PAI-1 [1]; [6]) [%] | inhibition at 25 µM (recombinant human PAI-1 [1]; [6]) [%] | inhibition at 5 µM (recombinant human PAI-1 [1]; read-out: Inhibition Rate of PAI Activity (%), Compound Concentration 5µM) [%] | inhibition at 10 µM (recombinant human PAI-1 [1]; read-out: Inhibition Rate of PAI Activity (%), Compound Concentration 10µM) [%]
CCC(CC)Oc1ccc(N(CCCc2ccccc2)C(=O)C(=O)O)cc1-c1ccc(OC(F)(F)F)cc1 [Compound 230] | 75 | 95 | 92 | 0 | 13 | 83 | 94 | 0 | 8 | 27 | 96 | – | – | – | – | –
O=C(O)CCc1c(Oc2ccc(OC(F)(F)F)cc2)cccc1Oc1ccc(OC(F)(F)F)cc1 [Compound 98] | 57 | 84 | 98 | 0 | 10 | 39 | 95 | 0 | 2 | 25 | 84 | – | – | – | – | –
CC(C)(C)c1ccc(COc2c(CCC(=O)O)cccc2-c2ccc(OC(F)(F)F)cc2)cc1 [Compound 88] | – | – | – | 0 | 0 | 51 | 83 | 0 | 5 | 25 | 97 | 42 | 83 | 97 | – | –
CC(C)(C)c1ccc(Oc2cccc(-c3ccc(OC(F)(F)F)cc3)c2OCC(=O)O)cc1 [Compound 113] | 58 | 85 | 97 | 0 | 9 | 33 | 99 | 0 | 6 | 26 | 73 | – | – | – | – | –
CC(C)(C)c1ccc(CN(C(=O)C(=O)O)c2ccc(-c3ccc(OC(F)(F)F)cc3)cc2Cl)cc1 [Compound 147] | 38 | 80 | 92 | 0 | 14 | 70 | 87 | 0 | 7 | 35 | 99 | – | – | – | – | –
Cc1cc(N(C)C)c(-c2ccc(OC(F)(F)F)cc2)cc1N(Cc1ccc(C(C)(C)C)cc1)C(=O)C(=O)O [Compound 215] | – | – | – | 2 | 16 | 84 | 97 | 7 | 18 | 54 | 95 | 90 | 92 | – | – | –
CN(C)c1ccc(N(Cc2ccc(C(C)(C)C)cc2)C(=O)C(=O)O)cc1-c1ccc(OC(F)(F)F)cc1 [Compound 214] | – | – | – | 0 | 8 | 77 | 97 | 4 | 2 | 40 | 96 | 87 | 93 | – | – | –
CC(C)(C)c1ccc(CN(C(=O)C(=O)O)c2cccc(Oc3ccc(OC(F)(F)F)cc3)c2)cc1 [Compound 172] | 58 | 89 | 94 | 0 | 6 | 49 | 97 | 4 | 8 | 18 | 76 | – | – | – | – | –
CC(C)(C)c1ccc(COc2ccc(-c3ccc(OC(F)(F)F)cc3)cc2CC(=O)O)cc1 [Compound 9] | – | – | – | 0 | 15 | 71 | 96 | 0 | 6 | 25 | 98 | – | – | – | 90 | 99
CC(C)(Oc1cc(-c2ccc(OC(F)(F)F)cc2)ccc1OCCCCc1ccccc1)C(=O)O [Compound 116] | – | – | – | 2 | 12 | 43 | 98 | 0 | 0 | 15 | 89 | 56 | 81 | 91 | – | –
CCN(CC)c1ccc(N(Cc2ccc(C(C)(C)C)cc2)C(=O)C(=O)O)cc1-c1ccc(OC(F)(F)F)cc1 [Compound 213] | – | – | – | 8 | 26 | 90 | 78 | 0 | 10 | 48 | 98 | 93 | 84 | – | – | –
CC(C)(C)c1ccc(COc2c(OCC(=O)O)cccc2-c2ccc(OC(F)(F)F)cc2)cc1 [Compound 117] | 63 | 91 | 96 | 0 | 7 | 63 | 94 | 2 | 7 | 46 | > 99 | – | – | – | – | –
CCCCOc1ccc(-c2ccc(OC(F)(F)F)cc2)cc1N(CCCCc1ccccc1)C(=O)C(=O)O [Compound 231] | 81 | 97 | 94 | 3 | 18 | 89 | > 99 | 0 | 6 | 34 | 98 | – | – | – | – | –
CC(C)(C)c1ccc(CN(C(=O)C(=O)O)c2ccc(Cl)cc2-c2ccc(OC(F)(F)F)cc2)cc1 [Compound 192] | 80 | 95 | 94 | 0 | 8 | 76 | 96 | 0 | 1 | 35 | > 99 | – | – | – | – | –
CC(C)(C)c1ccc(C(c2ccccc2)N(C(=O)C(=O)O)c2ccc(-c3ccc(OC(F)(F)F)cc3)cc2)cc1 (stereo not shown) [Compound 222] | 74 | 91 | – | 3 | 32 | 91 | – | 0 | 3 | 45 | > 99 | – | – | – | – | –
CC(C)Oc1ccc(N(Cc2ccc(C(C)(C)C)cc2)C(=O)C(=O)O)cc1-c1ccc(OC(F)(F)F)cc1 [Compound 211] | – | – | – | 4 | 17 | 78 | 87 | 9 | 16 | 43 | 96 | 87 | 96 | – | – | –
